pEC50: −log10 of the molar value.
Columns and labels:
[1] = molecular target: T1, Glutamate receptor ionotropic, AMPA (Rattus norvegicus) (UniProt P19491+P19492+P19493+P19490); experiment: Agonist activity at AMPA receptor in rat Primary neuron cells assessed as increase in fluorescence level at 1 uM incubated for 1 hr by calcium 2+ influx assay relative to s-AMPA coupled TAK-137; assay type: cell-based
[2] = molecular target: T1, Glutamate receptor ionotropic, AMPA (Rattus norvegicus); experiment: Agonist activity at AMPA receptor in rat Primary neuron cells assessed as potentiation of s-AMPA induced calcium flux at 1 uM incubated for 1 hr by calcium 2+ influx assay relative to s-AMPA coupled TAK-137; assay type: cell-based
[3] = molecular target: Glutamate receptor ionotropic, AMPA (Rattus norvegicus, UniProt P19490+P19491+P19492+P19493); experiment: Agonist activity at AMPA receptor in rat Primary neuron cells; assay type: cell-based
[4] = molecular target: T1, Glutamate receptor ionotropic, AMPA (Rattus norvegicus); experiment: Agonist activity at AMPA receptor in rat Primary neuron cells relative to control; assay type: cell-based; conditions: filed as agonist
[5] = Half life in Sprague-Dawley rat at 0.3 mg/kg, iv by LC-MS/MS analysis; assay type: ADME, organism-based; conditions: in vivo
[6] = AUC (0 to t) in Sprague-Dawley rat at 3 mg/kg, po by LC-MS/MS analysis; assay type: ADME, organism-based; set-up: dose 3 mg/kg, route po; conditions: in vivo
[7] = Half life in Sprague-Dawley rat at 3 mg/kg, po by LC-MS/MS analysis; assay type: ADME, organism-based; conditions: in vivo
[8] = Tmax in Sprague-Dawley rat at 3 mg/kg, po by LC-MS/MS analysis; assay type: ADME, organism-based; conditions: in vivo
[9] = MRT (0 to t) in Sprague-Dawley rat at 0.3 mg/kg, iv by LC-MS/MS analysis; assay type: ADME, organism-based; conditions: in vivo
[10] = Volume of distribution at steady state in Sprague-Dawley rat at 0.3 mg/kg, iv by LC-MS/MS analysis; assay type: ADME, organism-based; conditions: in vivo, read-out: Vdss
[11] = AUC (0 to infinity) in Sprague-Dawley rat at 0.3 mg/kg, iv by LC-MS/MS analysis; assay type: ADME, organism-based; set-up: dose 0.3 mg/kg, route iv; conditions: in vivo
[12] = Cmax in Sprague-Dawley rat at 0.3 mg/kg, iv by LC-MS/MS analysis; assay type: ADME, organism-based; set-up: dose 0.3 mg/kg, route iv; conditions: in vivo
[13] = Clearance in Sprague-Dawley rat at 0.3 mg/kg, iv by LC-MS/MS analysis; assay type: ADME, organism-based; conditions: in vivo
[14] = MRT (0 to infinity) in Sprague-Dawley rat at 0.3 mg/kg, iv by LC-MS/MS analysis; assay type: ADME, organism-based; conditions: in vivo
[15] = Oral bioavailability in Sprague-Dawley rat at 3 mg/kg by LC-MS/MS analysis; assay type: ADME, organism-based; conditions: in vivo
[16] = MRT (0 to t) in Sprague-Dawley rat at 3 mg/kg, po by LC-MS/MS analysis; assay type: ADME, organism-based; conditions: in vivo
[17] = AUC (0 to t) in Sprague-Dawley rat at 0.3 mg/kg, iv by LC-MS/MS analysis; assay type: ADME, organism-based; set-up: dose 0.3 mg/kg, route iv; conditions: in vivo
[18] = MRT (0 to infinity) in Sprague-Dawley rat at 3 mg/kg, po by LC-MS/MS analysis; assay type: ADME, organism-based; conditions: in vivo
[19] = Cmax in Sprague-Dawley rat at 3 mg/kg, po by LC-MS/MS analysis; assay type: ADME, organism-based; set-up: dose 3 mg/kg, route po; conditions: in vivo
[20] = Tmax in Sprague-Dawley rat at 0.3 mg/kg, iv by LC-MS/MS analysis; assay type: ADME, organism-based; conditions: in vivo
[21] = AUC (0 to infinity) in Sprague-Dawley rat at 3 mg/kg, po by LC-MS/MS analysis; assay type: ADME, organism-based; set-up: dose 3 mg/kg, route po; conditions: in vivo

Compound | Activity [1] | Activity ([2]; filed as agonist) | Activity [2] | further results
N#Cc1ccc(-c2cccc3c2OS(=O)(=O)NC3)cc1 | 2.9% | – | 23.7% | –
COc1ccccc1-c1ccc(-c2cccc3c2OS(=O)(=O)NC3C)cc1 (stereo not drawn) | 8.5% | 65.5% | – | –
Cc1ccc(-c2ccc(-c3cccc4c3OS(=O)(=O)NC4)cc2F)cc1 | 6.3% | – | 37.7% | –
O=S1(=O)NCc2cccc(-c3ccc(-c4ccc(C(F)(F)F)cc4)cc3)c2O1 | 0.8% | – | 0.7% | –
COc1ccccc1-c1ccc(-c2cccc3c2OS(=O)(=O)NC3)cc1 | 2.1% | 83.8% | – | pEC50 [3]: 6.42; Emax [4]: 125%
O=S1(=O)NCc2cccc(-c3ccc(OC(F)(F)F)cc3)c2O1 | 1.4% | 72.2% | – | –
COc1ccc(-c2ccc(-c3cccc4c3OS(=O)(=O)NC4)cc2)cc1 | -3.7% | 82.4% | – | pEC50 [3]: 5.91; Emax [4]: 79%
COc1ccc(-c2cccc3c2OS(=O)(=O)NC3)c(F)c1 | 8.2% | – | 10.3% | –
O=S1(=O)NCc2cccc(-c3ccc(-c4ccc(OC(F)(F)F)cc4)cc3)c2O1 | -1.5% | – | -3% | –
Cc1ccc(-c2cccc3c2OS(=O)(=O)NC3)cc1 | 7.3% | 81.7% | – | –
CC(C)(C)c1ccc(-c2cccc3c2OS(=O)(=O)NC3)cc1 | 29.4% | 106% | – | –
CC(C)(C)c1ccc(-c2ccc(-c3cccc4c3OS(=O)(=O)NC4)cc2)cc1 | -2% | – | -1.3% | –
CC1NS(=O)(=O)Oc2c(-c3ccc(-c4ccccc4F)cc3)cccc21 (stereo not drawn) | 10.5% | 69.2% | – | –
CC1NS(=O)(=O)Oc2c(-c3ccc(-c4cccc(F)c4)cc3)cccc21 (stereo not drawn) | 8.6% | 62.4% | – | –
O=S1(=O)NCc2cccc(-c3cccc(Oc4ccccc4)c3)c2O1 | 1% | – | 1.9% | –
CC1NS(=O)(=O)Oc2c(-c3ccc(-c4ccc(F)cc4)cc3)cccc21 (stereo not drawn) | 3.7% | 59.6% | – | –
O=S1(=O)NCc2cccc(-c3ccccc3Oc3ccccc3)c2O1 | -0.5% | – | 1% | –
O=S1(=O)NCc2cccc(-c3ccc(Oc4ccccc4)cc3)c2O1 | 4.1% | 77.3% | – | half-life [5]: 1.27 h; AUC(0-t) [6]: 265 ng·h/mL; half-life [7]: 3.12 h; Tmax [8]: 0.5 h; MRT last [9]: 0.7 h; Vd [10]: 1.79 L/kg; AUC(0-inf) [11]: 136 ng·h/mL; Cmax [12]: 246 ng/mL; clearance [13]: 37.4 mL/min/kg; MRT inf [14]: 0.81 h; bioavailability [15]: 19.8%; pEC50 [3]: 5.79; MRT last [16]: 2.63 h; AUC(0-t) [17]: 134 ng·h/mL; MRT inf [18]: 4.56 h; Emax [4]: 169%; Cmax [19]: 96.1 ng/mL; Tmax [20]: 4.8 min; AUC(0-inf) [21]: 328 ng·h/mL
O=S1(=O)NCc2cccc(-c3ccc(-c4ccc(F)cc4)cc3)c2O1 | 8.1% | 85.3% | – | –
O=S1(=O)NCc2c(cccc2-c2ccc(Oc3ccccc3)cc2)O1 | 0.8% | – | 0% | –
COc1ccc(-c2ccc(-c3cccc4c3OS(=O)(=O)NC4)c(F)c2)cc1 | 3.2% | 67.9% | – | –
O=S1(=O)NCc2ccc(-c3ccc(Oc4ccccc4)cc3)cc2O1 | 0.7% | – | -0.8% | –
COc1cccc(-c2ccc(-c3cccc4c3OS(=O)(=O)NC4)cc2)c1 | 2.5% | 56.4% | – | –
O=S1(=O)NCc2cccc(-c3ccc(F)cc3)c2O1 | 36.5% | 48% | – | –
COc1cccc(-c2ccc(-c3cccc4c3OS(=O)(=O)NC4C)cc2)c1 (stereo not drawn) | 4.2% | 58.5% | – | –
O=S1(=O)NCc2cccc(-c3ccc(-c4ccccc4)cc3)c2O1 | 6.2% | 69.6% | – | –
COc1ccc(-c2cccc3c2OS(=O)(=O)NC3)cc1F | 19.2% | 98.4% | – | –
Cc1ccc(-c2ccc(-c3cccc4c3OS(=O)(=O)NC4)c(F)c2)cc1 | 1.4% | 40.7% | – | –

Continued, in another order:

Activity [1] | Activity ([2]; filed as agonist) | Activity [2] | Compound | further results
13.2% | 107% | – | CC(C)Oc1ccc(-c2cccc3c2OS(=O)(=O)NC3)cc1 | –
5.3% | 55.8% | – | COc1ccc(-c2ccc(-c3cccc4c3OS(=O)(=O)NC4)cc2F)cc1 | –
1.9% | – | 0.6% | COc1ccc(-c2cccc3c2OS(=O)(=O)NC3)cc1C(F)(F)F | –
0.5% | – | 1.4% | O=S1(=O)NCc2cc(-c3ccc(Oc4ccccc4)cc3)ccc2O1 | –
3.1% | – | 2.6% | COc1c(C)cc(-c2cccc3c2OS(=O)(=O)NC3)cc1C | –
17.1% | 92% | – | O=S1(=O)NCc2cccc(-c3ccc4c(c3)OCO4)c2O1 | –
-2.1% | – | 3% | CC(C)Oc1ccc(-c2ccc(-c3cccc4c3OS(=O)(=O)NC4)cc2)cc1 | –
0.1% | 55.3% | – | Cc1ccc(-c2ccc(-c3cccc4c3OS(=O)(=O)NC4C)cc2)cc1 (stereo not drawn) | –
7.2% | – | 23.9% | O=S1(=O)NCc2cccc(-c3ccc(-c4ccc(C(F)F)cc4)cc3)c2O1 | –
2.5% | – | 38.7% | O=S1(=O)NCc2cccc(-c3ccc(-c4ccc(F)c(F)c4)cc3)c2O1 | –
3.5% | 72.1% | – | O=S1(=O)NCc2cccc(-c3ccc(-c4cccc(F)c4)cc3)c2O1 | –
14% | 81.3% | – | O=S1(=O)NCc2cccc(-c3ccc(C(F)(F)F)cc3)c2O1 | –
19.5% | 90.7% | – | O=S1(=O)NCc2cccc(-c3ccc4c(c3)OCCO4)c2O1 | –
2.1% | 50.7% | – | COc1ccc(-c2ccc(-c3cccc4c3OS(=O)(=O)NC4C)cc2)cc1 (stereo not drawn) | –
3.5% | 66% | – | Cc1ccc(-c2ccc(-c3cccc4c3OS(=O)(=O)NC4)cc2)cc1 | –
1% | 89.3% | – | COc1ccc(-c2cccc3c2OS(=O)(=O)NC3)cc1 | pEC50 [3]: 6.26; Emax [4]: 99%
